SMILES strings stand for the structures.

This experiment has as its target URAT-1 transporter (Homo sapiens (Human), UniProt Q96S37). Nature of the experiment: URAT-1 inhibitor activity: [14C]-uric acid uptake in CHO-URAT1(L)GFP#8 (CHO#8) cells, scintillation proximity. Format: cell-based. To be noted: inhibition of [14C]-uric acid (30 nM) uptake into CHO#8 cells; compound 0 to 10 μM; 4 parameter logistic fit. An excerpt:
The nucleotide sequence for the long isoform of URAT1 (NM_144585) was C-terminally fused to that of enhanced green fluorescent protein (eGFP) (hereinafter referred to as URAT1(L)GFP). The combined sequence was codon-optimised and custom synthesized. The synthesized sequence was generated in pDONR221 Gateway entry vector (Invitrogen Life Technologies) prior to cloning in pLenti6.3/V5 Gateway destination vector (Invitrogen Life Technologies).
Lentiviral particles were generated according to ViraPower HiPerform expression system procedure (Invitrogen Life Technologies) and used to transduce CHO cells. […] The clonal pools were sorted using fluorescence-activated cell sorting (FACS) on the basis of GFP expression with the gating set at the top 50% of expression into single cells which were subsequently expanded to generate clonal lines. […] This cell line was used for all screening activities and is referred to as CHO-URAT1(L)GFP#8 or CHO#8.
The potency of the compounds of formula (I) as inhibitors of the URAT-1 transporter was determined as follows.
CHO#8 cells were cultured in cell line maintenance flasks in medium consisting of Dulbecco's modified Eagle medium (DMEM) with high glucose and sodium pyruvate (4.5 g of glucose per liter, Invitrogen Life Technologies), supplemented with heat-inactivated foetal bovine serum (FBC, 10% v/v), 1×NEAA (non-essential amino acids) and blasticidin (10 μg/ml). Cultures were grown in 175 cm^2 tissue culture flasks in a humidified incubator at approximately 37° C. in approximately 95% air/5% CO2. Near confluent CHO#8 cell cultures were harvested by trypsinisation, re-suspended in culture medium and the process was repeated once or twice weekly to provide sufficient cells for use.
Assay ready flasks were generated by the same method, except the cells were not cultured in blasticidin.
Assay ready frozen cells were generated by freezing 40,000,000 cells in 1 ml of FBS (without blasticidin) containing 10% DMSO per vial. One vial was sufficient for 5 assay plates. Each vial was thawed rapidly to 37° C., washed and re-suspended in pre-warmed culture medium for seeding onto assay plates.
CHO#8 cells were seeded onto Cytostar™ 96-well plates at a density of […]. The cells were cultured for 1 day at approximately 37° C. in a humidified incubator containing approximately 5% CO2 in air. After approximately 24 hours culture, cells were used for uptake experiments.
On the day of assay, culture medium was removed from the wells and the cells were washed once with 50 μL of chloride-containing buffer (136.7 mM NaCl, 5.36 mM KCl, 0.952 mM CaCl2, 0.441 mM KH2PO4, 0.812 mM MgSO4, 5.6 mM D-glucose, 0.383 mM Na2HPO4.2H2O, 10 mM HEPES, pH 7.4 with NaOH). The cells were pre-incubated with another 50 μL of chloride-containing buffer for one hour at approximately 37° C. in a humidified incubator containing approximately 5% CO2 in air.
Assay compound plates were prepared by diluting the compounds of formula (I) with chloride-free buffer (125 mM Na-gluconate, 4.8 mM K-gluconate, 1.3 mM Ca-gluconate, 1.2 mM KH2PO4, 1.2 mM MgSO4, 5.6 mM D-glucose, 25 mM HEPES, pH 7.4 with NaOH) in 100% DMSO to a final concentration of 1% DMSO. [^14C]-Uric Uric acid working stock was made by addition of radiolabeled compound to a final concentration of 120 nM in chloride-free buffer. In all wells, the final assay concentration of solvent (DMSO) was 0.25%; the final assay concentration of [^14C]-uric acid was 30 nM in chloride-free buffer and the final compound of formula (I) concentrations ranged from 0 to 10 μM.
After pre-incubation, cells were washed with 50 μL of chloride-free buffer and another 50 μL of chloride-free buffer was added.

Chain of URAT-1 transporter (Q96S37 other isoform, or with tags, fused parts or gaps): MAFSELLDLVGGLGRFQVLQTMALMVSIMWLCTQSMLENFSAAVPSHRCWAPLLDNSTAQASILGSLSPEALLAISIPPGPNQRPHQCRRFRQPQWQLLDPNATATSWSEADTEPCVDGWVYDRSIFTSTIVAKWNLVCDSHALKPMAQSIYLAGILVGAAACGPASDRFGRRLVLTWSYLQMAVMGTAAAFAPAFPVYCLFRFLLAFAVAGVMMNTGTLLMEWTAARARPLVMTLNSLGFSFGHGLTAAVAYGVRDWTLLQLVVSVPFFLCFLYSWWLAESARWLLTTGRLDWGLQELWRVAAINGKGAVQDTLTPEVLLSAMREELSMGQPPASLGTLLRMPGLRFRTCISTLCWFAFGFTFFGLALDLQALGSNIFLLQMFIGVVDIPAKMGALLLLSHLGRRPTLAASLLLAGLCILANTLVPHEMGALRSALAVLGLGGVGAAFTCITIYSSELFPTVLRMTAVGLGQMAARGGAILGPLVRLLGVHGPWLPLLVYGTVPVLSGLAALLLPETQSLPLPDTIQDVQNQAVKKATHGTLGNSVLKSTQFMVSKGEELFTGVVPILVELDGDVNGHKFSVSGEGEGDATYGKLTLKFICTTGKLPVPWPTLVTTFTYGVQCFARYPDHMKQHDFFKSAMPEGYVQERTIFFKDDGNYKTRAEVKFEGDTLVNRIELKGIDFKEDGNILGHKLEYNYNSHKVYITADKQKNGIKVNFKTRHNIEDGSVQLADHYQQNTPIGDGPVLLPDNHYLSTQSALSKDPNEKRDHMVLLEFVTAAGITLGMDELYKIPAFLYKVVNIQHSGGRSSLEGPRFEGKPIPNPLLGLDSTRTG

`COc1cccc(C)c1Oc1ccc(S(=O)(=O)Nc2ccc(F)cn2)cc1C#N` [Example 115, 3-cyano-N-(5-fluoropyridin-2-yl)-4-(2-methoxy-6-methylphenoxy)benzenesulfonamide] returned an IC50 of 24 nM.
For `Cc1ccnc(NS(=O)(=O)c2ccc(Oc3cccc(Cl)c3C#N)cc2)c1` [Example 216, 4-(3-chloro-2-cyanophenoxy)-N-(4-methylpyridin-2-yl)benzenesulfonamide] the value was greater than 10000 nM; for `COc1ccc(Oc2ccc(S(=O)(=O)Nc3ccc(F)cn3)cc2C#N)cn1` [Example 199, 3-cyano-N-(5-fluoropyridin-2-yl)-4-[(6-methoxypyridin-3-yl)oxy]benzenesulfonamide], 129 nM.
Next, `Cc1ncc(Oc2ccc(S(=O)(=O)Nc3ccc(F)cn3)cc2C#N)cc1Cl` [compound 238]: 88 nM.
For `CCOc1cccc(Oc2ccc(S(=O)(=O)Nc3ccc(F)cn3)cc2C#N)c1` [Example 135, 3-cyano-4-(3-ethoxyphenoxy)-N-(5-fluoropyridin-2-yl)benzenesulfonamide], the IC50 was greater than 10000 nM.
For `N#Cc1cc(S(=O)(=O)Nc2ccc(F)cn2)ccc1Oc1cccc(F)c1F` [Example 16, 3-cyano-4-(2,3-difluorophenoxy)-N-(5-fluoropyridin-2-yl)benzenesulfonamide] the value was 218 nM; for `N#Cc1cc(S(=O)(=O)Nc2ccc(F)cn2)ccc1Oc1cc(Cl)c(C#N)c(Cl)c1` [Example 241, 3-cyano-4-(3,5-dichloro-4-cyanophenoxy)-N-(5-fluoropyridin-2-yl)benzenesulfonamide], 3 nM.
Next, `N#Cc1cc(S(=O)(=O)Nc2ccc(F)cn2)ccc1Oc1cnc(OC(F)F)c(Cl)c1` [compound 231]: 53 nM; `N#Cc1ccc(Oc2ccc(S(=O)(=O)Nc3ccc(F)cn3)cc2Cl)cc1F` [compound 228]: 244 nM.
For `N#Cc1c(Cl)cccc1Oc1ccc(S(=O)(=O)Nc2ccccn2)cc1` [Example 218, 4-(3-chloro-2-cyanophenoxy)-N-(pyridin-2-yl)benzenesulfonamide] the value was greater than 10000 nM; for `N#Cc1cc(S(=O)(=O)Nc2ccc(F)cn2)ccc1Oc1c(F)ccc(F)c1F` [Example 134, 3-cyano-N-(5-fluoropyridin-2-yl)-4-(2,3,6-trifluorophenoxy)benzenesulfonamide], greater than 10000 nM; for `Cc1ccc(Oc2ccc(S(=O)(=O)Nc3ccc(F)cn3)cc2C#N)c(Cl)c1` [Example 42, 4-(2-chloro-4-methylphenoxy)-3-cyano-N-(5-fluoropyridin-2-yl)benzenesulfonamide], 383 nM.
Turning to `N#Cc1ccc(Oc2ccc(S(=O)(=O)Nc3cc(F)ccn3)cc2C#N)cc1Cl` [Example 104, 4-(3-chloro-4-cyanophenoxy)-3-cyano-N-(4-fluoropyridin-2-yl)benzenesulfonamide], the IC50 is 15 nM.
For `N#Cc1cc(S(=O)(=O)Nc2ccc(F)cn2)ccc1Oc1ccc(Cl)cc1` [Example 20, 4-(4-chlorophenoxy)-3-cyano-N-(5-fluoropyridin-2-yl)benzenesulfonamide], half-maximal inhibition (IC50) was put at 88 nM. Compared with the last compound, the IC50 is about 5.9-fold higher.
Next, `N#Cc1cc(S(=O)(=O)Nc2ccc(F)cn2)ccc1Oc1cc(Cl)ccc1Cl` [Example 170, 3-cyano-4-(2,5-dichlorophenoxy)-N-(5-fluoropyridin-2-yl)benzenesulfonamide]: 570 nM.
With `N#Cc1cc(S(=O)(=O)Nc2ccc(F)cn2)ccc1Oc1ccc(Cl)cc1OC(F)F` [Example 74, 4-[4-chloro-2-(difluoromethoxy)phenoxy]-3-cyano-N-(5-fluoropyridin-2-yl)benzenesulfonamide], the 50% inhibitory concentration (IC50) is greater than 10000 nM.
For `Cc1cccc(C)c1Oc1ccc(S(=O)(=O)Nc2ccc(F)cn2)cc1C#N` [Example 152, 3-cyano-4-(2,6-dimethylphenoxy)-N-(5-fluoropyridin-2-yl)benzenesulfonamide] the value was 50 nM; for `N#Cc1cc(S(=O)(=O)Nc2ccc(F)cn2)ccc1Oc1cc(F)cc(F)c1Cl` [Example 32, 4-(2-chloro-3,5-difluorophenoxy)-3-cyano-N-(5-fluoropyridin-2-yl)benzenesulfonamide], 212 nM.
Compound `Cc1cc(Oc2ccc(S(=O)(=O)Nc3ccc(F)cn3)cc2C#N)ccc1C(C)C` [Example 139, 3-cyano-N-(5-fluoropyridin-2-yl)-4-[3-methyl-4-(propan-2-yl)phenoxy]benzenesulfonamide] returned a half-maximal inhibitory concentration (IC50) greater than 10000 nM.
Next, `N#Cc1cc(S(=O)(=O)Nc2ccc(F)cn2)ccc1Oc1ccc(F)c(Cl)c1` [Example 78, 4-(3-chloro-4-fluorophenoxy)-3-cyano-N-(5-fluoropyridin-2-yl)benzenesulfonamide]: 19 nM; `N#Cc1cc(S(=O)(=O)Nc2ccc(F)cn2)ccc1Oc1cc(Cl)ccc1C#N` [Example 65, 4-(5-chloro-2-cyanophenoxy)-3-cyano-N-(5-fluoropyridin-2-yl)benzenesulfonamide]: 182 nM; `COc1cc(Cl)cc(Oc2ccc(S(=O)(=O)Nc3ccc(F)cn3)cc2C#N)c1` [Example 162, 4-(3-chloro-5-methoxyphenoxy)-3-cyano-N-(5-fluoropyridin-2-yl)benzenesulfonamide]: 125 nM.
Next, `COc1cc(F)ccc1Oc1ccc(S(=O)(=O)Nc2ccc(F)cn2)cc1C#N` [Example 160, 3-cyano-4-(4-fluoro-2-methoxyphenoxy)-N-(5-fluoropyridin-2-yl)benzenesulfonamide]: greater than 10000 nM; `COc1cc(Cl)ccc1Oc1ccc(S(=O)(=O)Nc2ccc(F)cn2)cc1C#N` [Example 143, 4-(4-chloro-2-methoxyphenoxy)-3-cyano-N-(5-fluoropyridin-2-yl)benzenesulfonamide]: 79 nM.
Next, `N#Cc1c(Cl)cccc1Oc1ccc(S(=O)(=O)Nc2ncccn2)cc1` [Example 222, 4-(3-chloro-2-cyanophenoxy)-N-(pyrimidin-2-yl)benzenesulfonamide]: greater than 10000 nM.
Compound `Cc1ccc(NS(=O)(=O)c2ccc(Oc3ccc(C#N)c(Cl)c3)c(C#N)c2)nc1` [compound 233] returned an IC50 of 233 nM.
Compound `N#Cc1ccc(Oc2ccc(S(=O)(=O)Nc3ncccc3F)cc2C#N)cc1Cl` [Example 103, 4-(3-chloro-4-cyanophenoxy)-3-cyano-N-(3-fluoropyridin-2-yl)benzenesulfonamide] registered a half-inhibitory concentration (IC50) of 145 nM.
Next, `N#Cc1cc(S(=O)(=O)Nc2ccc(F)cn2)ccc1Oc1ccc(Cl)cc1I` [Example 58, 4-(4-chloro-2-iodophenoxy)-3-cyano-N-(5-fluoropyridin-2-yl)benzenesulfonamide]: 287 nM; `CC(C)(C)c1ccc(Oc2ccc(S(=O)(=O)Nc3ccc(F)cn3)cc2C#N)cc1` [Example 137, 4-(4-tert-butylphenoxy)-3-cyano-N-(5-fluoropyridin-2-yl)benzenesulfonamide]: greater than 10000 nM.
Next, `N#Cc1c(Cl)cccc1Oc1ccc(S(=O)(=O)Nc2ccncc2)cc1` [Example 217, 4-(3-chloro-2-cyanophenoxy)-N-(pyridin-4-yl)benzenesulfonamide]: greater than 10000 nM; `N#Cc1cc(S(=O)(=O)Nc2ccc(F)cn2)ccc1Oc1cc(F)cc(C(F)(F)F)c1` [Example 40, 3-cyano-N-(5-fluoropyridin-2-yl)-4-[3-fluoro-5-(trifluoromethyl)phenoxy]benzenesulfonamide]: 988 nM.
